Drawing on PubChem BioAssay (NCI), this text covers TGI for 5 compounds.

Structures are written as SMILES.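 Dose response: 5 concentrations. Exposure: 48 h. Format: 96-well plates. Endpoint: linear interpolation; highest concentration if not reached. TGI: total growth inhibition.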

Holding throughout (assay): inhibition of tumour cell growth, NCI panel, 48 h
The test system of assay [1] is MDA-MB-231 breast.
In assay [2] the test system is SR leukemia.
In assay [3] the test system is SNB-19 CNS.
In assay [4] the test system is HCT-15 colon.
Assay [5] has as its system HOP-92 NSCLC.
Assay [6] deals with NCI-H226 lung.
Assay [7] has as its system OVCAR-4 ovarian.
The test system of assay [8] is SK-MEL-2 melanoma.
Assay [9] relates to MCF7 breast.
Assay [10] relates to SN12C renal.

For the compound `CC(=O)c1c(C(F)(F)F)n([O-])c2cc(Cl)c(Cl)cc2[n+]1=O`, the TGI was determined as 2.99 µM in assay [1]; 0.0361 µM in assay [2]; 2.27 µM in [3]; 0.759 µM in assay [4]; 0.88 µM in assay [5]; 3.08 µM in assay [6]. Moreover, the TGI in [7] is 2.73 µM; in assay [8], 2.72 µM; in [9], 1.52 µM; in [10] it was 2.69 µM.

Take `COc1ccc(C(SC2C(O)C(CO)OC2n2ccc(N)nc2=O)(c2ccccc2)c2ccc(OC)cc2)cc1` (stereo not given): the TGI in assay [1] was found to be 30.8 µM; in [2] it was 58 µM; in [3] it was 64.4 µM; in assay [4] it was 46.2 µM; in [5], 37.3 µM; in assay [6], 28.3 µM. Besides, the TGI in assay [7] turned out to be 78.2 µM; in assay [8], 33 µM; in [9], 50.6 µM; in [10], 27.5 µM.

Consider `COc1ccc(NC(C)=O)cc1N1C(=O)/C(=C\c2cc(OC)c(OC)c(OC)c2)SC1c1ccccc1` (stereo not given), for which the TGI in assay [1], in [2], in assay [3], in [4], in assay [5] and in [6] was more than 100 µM throughout. In addition, the TGI in assay [7], in [8], in assay [9] and in [10] was more than 100 µM each time.

With `CCN(CC)c1ccc2cc(C(=O)Nc3cccc4ccccc34)c(=N)oc2c1`, the TGI in assay [1], in assay [2], in assay [3], in assay [4], in [5] and in assay [6] was more than 100 µM in each case. Further, the TGI in assay [7], in [8], in assay [9] and in assay [10] was more than 100 µM throughout.

`COc1cc(C2c3cc4c(cc3OC(NNC(N)=O)C2C)OCO4)cc(OC)c1O` (stereo not given): the TGI in assay [1] was more than 56.9 µM; in assay [2], more than 100 µM; in [3] it was more than 100 µM; in [4], more than 100 µM; in [5] it was more than 90.2 µM; in [6] it was 27.1 µM. The TGI in [7] is more than 100 µM; in assay [8] it was more than 74.4 µM; in [9] it was more than 55 µM; in assay [10], more than 90.4 µM.
